Measured values reported in article PMC5732040 (Cellular signalling, 2017).
Counter-ions that a name gives are not always drawn. Like-named read-outs stand apart in the source and are kept apart here.

Columns and labels:
[1] = system: TNF-α production by LPS-stimulated splenic monocytes; test: Cytokine assay: LPS-stimulated TNF-α production by splenic monocytes; type: cell-based, mouse; conditions: for inhibition of TNF-α production: CGS 21680 alone; for inhibition at 30 µM / inhibition at 100 µM: Mus musculus, Monocyte, 4 h
[2] = biological target: hA2AR (Homo sapiens, UniProt P29274); test: Cell-free membrane-based cAMP assay; type: biochemical; conditions: HEK293-hA2AR cytosol-free membrane preparations, ADA 3 U/ml, 30 min, NBMPR 0–300 μM
Sequence of hA2AR (P29274 whole entry): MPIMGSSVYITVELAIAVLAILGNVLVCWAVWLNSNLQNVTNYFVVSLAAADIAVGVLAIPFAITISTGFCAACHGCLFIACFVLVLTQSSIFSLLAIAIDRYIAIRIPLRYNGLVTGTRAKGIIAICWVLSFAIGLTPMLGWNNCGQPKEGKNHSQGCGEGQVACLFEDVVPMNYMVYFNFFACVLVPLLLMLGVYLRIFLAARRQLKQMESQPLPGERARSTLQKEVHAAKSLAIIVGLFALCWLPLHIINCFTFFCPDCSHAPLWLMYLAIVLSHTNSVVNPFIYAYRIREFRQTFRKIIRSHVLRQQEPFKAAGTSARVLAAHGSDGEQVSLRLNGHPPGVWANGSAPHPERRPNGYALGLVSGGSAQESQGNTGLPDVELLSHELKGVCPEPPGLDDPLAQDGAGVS

[3] = biological target: T1, human A2AR (Homo sapiens, UniProt P29274); test: Cell-based cAMP assay in CHO-hA2AR cells; conditions: 10 min
T1 sequence (P29274 whole entry): as above

[4] = system: CCL4 production by LPS-stimulated splenic monocytes; test: Cytokine assay: LPS-stimulated CCL4 production by splenic monocytes; type: cell-based, mouse; conditions: absence of ADA, single agents
[5] = system: CCL3 production by LPS-stimulated splenic monocytes; test: Cytokine assay: LPS-stimulated CCL3 production by splenic monocytes; type: cell-based, mouse; conditions: A2AR intact and deficient monocytes, absence of ADA
[6] = cited from earlier work
[7] = biological target: T1, human A2AR; test: ERK1/2 phosphorylation assay in CHO-hA2AR cells; conditions: inosine 1000 μM, AEA061 10 μM, 10 min

CCNC(=O)[C@H]1O[C@@H](n2cnc3c(N)nc(NCCc4ccc(CCC(=O)O)cc4)nc32)[C@H](O)[C@@H]1O [CGS 21680, 4-[2-[[6-Amino-9-(N-ethyl-β-D-ribofuranuronamidosyl)-9H-purin-2-yl]amino]ethyl] benzenepropanoic acid hydrochloride]
inhibition of TNF-α production ([1]; LPS-stimulated A2AR deficient monocytes, absence of ADA): 6.7%
inhibition of TNF-α production ([1]; LPS-stimulated A2AR-intact monocytes, absence of ADA): 39%

O=[N+]([O-])c1ccc(CSc2ncnc3c2ncn3[C@@H]2O[C@H](CO)[C@@H](O)[C@H]2O)cc1 [NBMPR, 6-S-[(4-Nitrophenyl)methyl]-6-thioinosine]
cAMP production [2]: dose-dependently increased cAMP production
cAMP production ([3]; without ADA): activated A2AR-mediated cAMP production

OC[C@H]1O[C@@H](n2cnc3c(O)ncnc32)[C@H](O)[C@@H]1O [inosine]
inhibition of CCL4 production [4]: individually inhibited CCL4 production
inhibition of CCL3 production [5]: closely resembles that of TNF-α
half-life [6]: 15 h
ERK1/2 phosphorylation [7]: increased ERK1/2 phosphorylation
inhibition of TNF-α production as single agent ([1]; LPS-stimulated A2AR intact monocytes, absence of ADA): dose-dependently inhibited TNF-α production
inhibition at 30 µM ([1]; read-out: inhibition of LPS-stimulated TNF-α production, A2AR deficient monocytes, absence of ADA, 30 μM, 4 h): 5.2 ± 1.3%
inhibition at 100 µM ([1]; read-out: inhibition of LPS-stimulated TNF-α production, A2AR deficient monocytes, absence of ADA, 100 μM, 4 h): 16.3 ± 0.7%
inhibition at 30 µM ([1]; read-out: inhibition of LPS-stimulated TNF-α production, A2AR deficient monocytes, presence of ADA 3 U/ml, 30 μM, 4 h): 5.2 ± 2.2%
inhibition at 100 µM ([1]; read-out: inhibition of LPS-stimulated TNF-α production, A2AR deficient monocytes, presence of ADA 3 U/ml, 100 μM, 4 h): 12.4 ± 1.2%
inhibition at 30 µM ([1]; read-out: inhibition of LPS-stimulated TNF-α production, A2AR intact monocytes, absence of ADA, 30 μM, 4 h): 18.6 ± 3.7%
inhibition at 100 µM ([1]; read-out: inhibition of LPS-stimulated TNF-α production, A2AR intact monocytes, absence of ADA, 100 μM, 4 h): 30.1 ± 1.3%
inhibition at 30 µM ([1]; read-out: inhibition of LPS-stimulated TNF-α production, A2AR intact monocytes, presence of ADA 3 U/ml, 30 μM, 4 h): 13.2 ± 1.9%
inhibition at 100 µM ([1]; read-out: inhibition of LPS-stimulated TNF-α production, A2AR intact monocytes, presence of ADA 3 U/ml, 100 μM, 4 h): 16.8 ± 1.6%
cAMP production ([3]; in the presence of ADA 3 U/ml): increased cAMP production
